Values quoted from earlier work as cited in patent publication US5086054A, “Novel arylcycloalkanepolyalkylamines” (SRI International, priority 1990, dated 1992).
Entries after “also recorded” stand apart in the source; their conditions may differ.

Columns and labels:
[1] = test system: σ receptors; conditions: literature; cited from earlier work
[2] = clinical trials; cited from earlier work
[3] = test system: climbing behavior in mice; conditions: cited from earlier work
[4] = test system: conditioned avoidance responses in rat; conditions: cited from earlier work
[5] = test system: σ receptor; conditions: rat spinal cord and brain membranes; cited from earlier work
[6] = test system: postsynaptic dopamine receptors; conditions: mesolimbic area; cited from earlier work

In the case of `C[C@@H]1CN(CCCn2c3ccccc3c3ccccc32)C[C@H](C)N1` [rimcazole, cis-9-[3-(3,5-dimethyl-1-piperazinyl)propyl]carbozole], the “affinity / binding at σ receptors (in words)” value [1] is given as “potent and selective σ receptor ligands; also recorded: high-affinity, σ-selective”, the clinical antipsychotic effects [2] is given as “display clinical antipsychotic effects” and the cataleptic state ([3]; associated with EPS) is given as “without producing the cataleptic state”. The climbing behavior [3] was “antagonize climbing behavior in mice”, the conditioned avoidance responses [4] was “did not influence conditioned avoidance responses in rat” and the “inhibition of specific binding of NAN” value [5] was “competitively inhibit specific binding of the σ receptor ligand NAN”. The “action at postsynaptic dopamine receptors” value [6] was “did not exert its action at the level of postsynaptic dopamine receptors in the mesolimbic area”.
